Read-outs that look alike come from different tables or passages of the source.
How the values were obtained:
pH of ILs = assay type: physicochemical
[1] = Biomass pretreatment using PBIL: enzymatic saccharification glucose yield
[2] = Compositional analysis of switchgrass after IL pretreatment; design: species or system Panicum virgatum; conditions: higher temperature pretreatment vs untreated
Source text: Thus, compositional analysis of untreated, and pretreated SG with [EOA][OAc] at different temperatures and time was studied and the results were summarized in Table 4. Solid recovery refers to the mass percentage of biomass (dry weight) recovered from the original biomass load. After washing, 55-81% of the biomass was recovered. […] Untreated SG contained 29.6% glucan, 18.4% xylan and 20% acid insoluble lignin (entry 1). […] This trend was most obvious after pretreatment under higher temperature where lignin content was reduced by 77% (untreated: 20% vs. pretreated: 4.7%). […] IL are consistent with our previous report by using basic ILs such as [Ch][Lys] and [C2C1Im][Lys].^13
Compositional analysis of SG before and after pretreatment was performed using NREL acidolysis protocols (LAP) LAP-002 and LAP-005, which was described in our previous work.^13 In a typical process, 200 mg of biomass and 2 mL of 72 wt % H2SO4 were incubated at 30° C. while shaking at 300 rpm for 1 h. The solution was diluted to 4 wt % H2SO4 with 56 mL of DI water and autoclaved for 1 h at 121° C. […] Carbohydrate concentrations were determined from the filtrate using an Agilent HPLC 1200 Series equipped with a Bio-Rad Aminex HPX-87H column and a Refractive Index detector. […] Acid insoluble lignin was quantified gravimetrically from the solid after heating overnight at 105° C. […]

[3] = One-pot pretreatment and SSF (cellulosic ethanol production); design: species or system Panicum virgatum; conditions: for theoretical ethanol yield: SSF
Experimental: (§1) FIG. 6A. Process optimization of one-pot ethanol fermentation after [EOA][OAc] pretreatment. Effect of yeast loading on ethanol fermentation. Conditions: pretreatment, 40 wt % SG loading, 60 wt % IL, 160° C., 0.5 h; saccharification, 5 wt % IL, 20 mg protein/g SG, pH 5, 50° C., 24 h; fermentation, 37° C., 72 h.
as §1, with “6B.” for “6A.”, “Illustration” for “Effect”, “the glucose consumption and” for “yeast loading on”, “production during SSF.” for “fermentation.”
FIG. 7. Illustration of the glucose consumption and ethanol production during SSF. Conditions: pretreatment, 40 wt % SG loading, 60 wt % IL, 160° C., 0.5 h; saccharification, 5 wt % IL, 20 mg protein/g SG, 50° C., 24 h; fermentation, 37° C., 72 h.
In a typical procedure, SG (100 mg) was mixed with ([EOA][OAc]) at a 40% biomass loading in a 15 mL capped glass pressure tube and pretreated in a convection oven at 160° C. for 0.5 h. After pretreatment, the pretreated slurry was diluted with DI-water to obtain a final IL concentration of 5 wt %, and pre-saccharificated for 24 h under the same aforementioned conditions. Simultaneously, wide type yeast strain BY4741 was prepared. After the addition of yeast strain, the SSF step was conducted for 72 hrs.

[4] = IL pretreatment and saccharification of different feedstocks: corn stover; conditions: corn stover (FIG. 4D)
Experimental: (§2) FIG. 4D. Effects of some parameters on the sugar yield: Biomass category. Normal operation conditions: pretreatment, 10 wt % SG loading, 90 wt % IL, 160° C., 0.5 h (3 h for ecucalyptus); saccharification, 10 wt % IL, 20 mg protein/g SG, 50° C., 72 h.
(§3) Thereafter, we explored the feasibilities of [EOA][OAc] for the pretreatment of different feedstocks including mixed feedstocks of SG and eucalyptus (1:1, w/w), eucalyptus (EU), and corn stover (CS).

[5] = IL pretreatment and saccharification of different feedstocks: mixed feedstocks; conditions: mixed feedstocks SG and eucalyptus 1:1 (FIG. 4D)
Experimental: as §2, §3

[6] = IL pretreatment and saccharification of different feedstocks: eucalyptus; conditions: 3 h pretreatment (FIG. 4D)
Experimental: as §2, §3

[7] = system: Saccharomyces cerevisiae strain BY4741; experiment: Toxicity test: yeast growth in IL solution; assay type: cell-based
Experimental: FIG. 5A. Toxicity test of [EOA][OAc] (A) and effect of biomass loading on sugar yield (B). Conditions: yeast strain: Saccharomyces cerevisiae strain BY4741, growth condition: in 24-well microplate with orbital-high intensity shaking/31° C./in IL solution (10 g/L glucose in each IL solutions), volume of the cell culture was 0.5 mL.
For toxicity screening, a wild type S. cerevisiae BY4741 strain was technically used and it was immersed in various IL concentrations from 2.5 to 15 wt %.

[8] = One-pot IL pretreatment and enzymatic saccharification (sugar yield); design: species or system Panicum virgatum; conditions: for yield of glucose / yield of xylose: 160 °C
Experimental: FIG. 3. Effect of IL type on the sugar yield (pretreatment: 10 wt % SG loading, 90 wt % IL, 140° C., 1 h, saccharification: 10 wt % IL, 10 mg protein per g switchgrass, 50° C., 72 h.
FIG. 4A. Effects of some parameters on the sugar yield: Biomass loading at pretreatment. Normal operation conditions: pretreatment, 10 wt % SG loading, 90 wt % IL, 160° C., 0.5 h (3 h for ecucalyptus); saccharification, 10 wt % IL, 20 mg protein/g SG, 50° C., 72 h.
FIG. 4B. Effects of some parameters on the sugar yield: Temperature/time. Normal operation conditions: pretreatment, 10 wt % SG loading, 90 wt % IL, 160° C., 0.5 h (3 h for ecucalyptus); saccharification, 10 wt % IL, 20 mg protein/g SG, 50° C., 72 h.
In a typical procedure, SG (100 mg) was mixed with ([EOA][OAc]) at a 10% biomass loading in a 15 mL capped glass pressure tube and pretreated in a convection oven at 160° C. for 0.5 h. Untreated raw SG (30-40 mesh) was used as a control. […] Enzymatic saccharification step was operated at 50° C. for 72 hrs with constant agitation on an Enviro Genie SI-1200 rotator platform (Scientific Industries, Inc., Bohemia, N.Y.). The loading of enzyme cocktails (9CTec2/HTec2, v/v) is 20 mg EP per g SG.

cellulases = conditions: previous literatures; cited from earlier work
[9] = optimized conditions, short time pretreatment
[10] = T/t 140/1, IL concentration not given

NCCO.O=P(O)(O)O [EA-dihydrogenphosphate]
pH (pH of ILs; Table 2): 4.5

C[N+](C)(C)CCO.C[N+](C)(C)CCO.O=P([O-])([O-])O [[Ch]2[HPO4]]
pH (pH of ILs): 8 | Enzymatic Saccharification Glucose yield % ([1]; T/t 140/1, IL 20%): 61.9% | Enzymatic Saccharification Glucose yield % ([1]; T/t 140/1, IL 50%): 55.1% | Enzymatic Saccharification Glucose yield % ([1]; T/t 140/1, IL 100%): 49.7%

NCCCC[C@H](N)C(=O)O.NCCO [EA-lysinate-m 1]
pH (pH of ILs; Table 2): 9

CC(=O)O.NCCO [[EOA][OAc], ethanolamine acetate]
lignin content reduced by [2]: 77% | theoretical ethanol yield ([3]; 40 wt % SG loading at pretreatment): 70% | theoretical ethanol yield ([3]; yeast loading 0.1 wt % (1 g/L)): around 70% | ethanol produced ([3]; from the glucan present in 1 kg of SG): 117 g | overall conversion in one-pot ([3]; glucan balance, FIG. 7): 70% | glucose from saccharification converted to ethanol ([3]; glucan/glucose balance, FIG. 7): over 90% | ethanol yield versus yeast loading ([3]; yeast loading increased from 0.01 to 0.21 wt % (FIG. 6A)): no significant difference in ethanol yield | sugar yields [4]: best performance | sugar yields [5]: low sugar yields | sugar yields [6]: low sugar yields | yeast growth ([7]; 5 wt % IL concentration): better yeast growth | IL titer at which better yeast growth occurs ([7]; IL concentrations from 2.5 to 15 wt %, FIG. 5A): below 10 wt % | glucose yield ([8]; 10% SG loading, 160 °C pretreated sample): ~85% | glucose yield ([8]; 40 wt % starting biomass loading (60 wt % IL), diluted to 5 wt % IL in saccharification (FIG. 5B)): comparative glucose yield with 20 wt % starting biomass loading | yield of glucose ([8]; pretreatment time 0.5 hrs): 85% | yield of xylose ([8]; pretreatment time 0.5 hrs): 35% | yield of glucose ([8]; pretreatment time 3 hrs): 87% | yield of xylose ([8]; pretreatment time 3 hrs): 42% | glucose yield ([8]; SG loading 25 wt %): Around 60% | glucose yield ([8]; biomass loading 5 to 20 wt % at pretreatment (FIG. 4A)): more than 75% | increase in digestibility of SG ([8]; from 140 to 160 °C): over 40% | sugar yield, IL screening ([8]; low pretreatment temperature and low enzyme loading (FIG. 3: 140 °C, 1 h, 10 mg protein per g switchgrass)): best performance | glucose (monomers) liberated from switchgrass [8, 9]: 85% | xylose (monomers) liberated from switchgrass [8, 9]: 35% | digestibility of SG ([8]; pretreatment 140 °C (FIG. 4B)): 60% | digestibility of SG ([8]; pretreatment 160 °C (FIG. 4B)): 85% | glucose released from SG ([8]; pretreatment 160 °C, 15 min): 45%

C[N+](C)(C)CCO.O=P([O-])(O)O [[Ch][H2PO4], Cholinium dihydrogen-phosphate]
pH (pH of ILs): 4.5 | pH (pH of ILs; Table 2): 4.5 | Enzymatic Saccharification Glucose yield % ([1]; T/t 140/1, IL 20%): 17.5% | Enzymatic Saccharification Glucose yield % ([1]; T/t 140/1, IL 50%): 16.9% | Enzymatic Saccharification Glucose yield % ([1]; T/t 140/1, IL 100%): 14.4%

Cholinium bicarbonate [[Ch][Bicarbonate]]
Enzymatic Saccharification Glucose yield % [1, 10]: 52.8 ± 4.3%

C[N+](C)(C)CCO.C[N+](C)(C)CCO.C[N+](C)(C)CCO.O=P([O-])([O-])[O-] [[Ch]3[PO4]]
pH (pH of ILs): 12.5 | Enzymatic Saccharification Glucose yield % ([1]; T/t 140/1, IL 20%): 54.6% | Enzymatic Saccharification Glucose yield % ([1]; T/t 140/1, IL 50%): 61.1% | Enzymatic Saccharification Glucose yield % ([1]; T/t 140/1, IL 100%): 61.8%

CC(=O)[O-].CCn1cc[n+](C)c1 [[C2C1Im][OAc], 1-ethyl-3-methyl imidazolium acetate]
IL concentration known to deactivate cellulases (cellulases): ~5 wt %

CCCCn1cc[n+](C)c1.[Cl-] [[C4C1Im][Cl], 1-n-butyl-3-methylimidazolium chloride]
IL concentration known to deactivate cellulases (cellulases): ~5 wt %

CCCCN(CCCC)CCCC.O=P(O)(O)O [[N444][H2PO4]]
ILs pH (pH of ILs; Table 5): 4.5 | Enzymatic Saccharification Glucose yield % ([1]; T/t 50/3): 13.4 ± 2.6% | Enzymatic Saccharification Glucose yield % ([1]; T/t 90/3): 16.2 ± 0.6%

dimethylammonium dimethylcarbamate
Enzymatic Saccharification Glucose yield % [1, 10]: 55.2 ± 3.9%

From patent US20190292572A1, “Novel protic or phosphate-based ionic liquids useful for lignocellulosic processing” (priority 2016, published 2019)
